Test results published in patent US10611750B2, “Tetrahydroquinoline compositions as bet bromodomain inhibitors” (FORMA Therapeutics, Inc., priority 2013, dated 2020).

Columns and labels:
[1] = target: T1, BRD4 Bromodomain 1 (BRD4 BD1) (Homo sapiens, UniProt O60885); assay: AlphaScreen binding assay, BRD4 BD1; settings: His-tagged BRD4 BD1 50 nM, biotinylated H4 (1-21) K5/8/12/16 tetra-acetylated peptide 50 nM, compounds listed under IC50 range headings
T1 construct: 44-168 and BRD4 BD2
In short: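 An AlphaScreen competition format was used with His-BRD4 BD1 or BD2 and biotin-H4 K5/8/12/16-acetyl peptide, each at matched final levels of 50 nM (BD1) or 100 nM (BD2). Incubation in HEPES/NaCl buffer with 0.1% BSA and 0.01% Triton X-100 ran ≥1 h before IC50 determination.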

[2] = target: T2, BRD4 Bromodomain 2 (BRD4 BD2) (Homo sapiens, UniProt O60885); assay: AlphaScreen binding assay, BRD4 BD2; settings: His-tagged BRD4 BD2 100 nM, biotinylated H4 (1-21) K5/8/12/16 tetra-acetylated peptide 100 nM, compounds listed under IC50 range headings
T2 construct: 333-460 were cloned, expressed, and purified to homogeneity
Procedure: The binding of Example compounds to BRD4 Bromodomain 1 and BRD4 Bromodomain 2 was assessed using 384-well AlphaScreen assay technology. His-epitope tagged BRD4 BD144-168 and BRD4 BD2333-460 were cloned, expressed, and purified to homogeneity. BRD4 BD1 and BRD4 BD2 binding and inhibition was assessed by monitoring the engagement of biotinylated Histone H4 (1-21) K5/8/12/16 tetra-acetylated peptide with the targets using the AlphaScreen technology (PerkinElmer). Specifically, in a 384-well black or white flat bottom plate, BRD4 BD1 (50 nM final) or BRD4 BD2 (100 nM final) was combined with peptide (50 nM final for BD1 or 100 nM final for BD2) in 50 mM HEPES (pH 7.3), 100 mM NaCl, 0.1% (w/v) BSA, and 0.01% (w/v) Triton X-100 either in the presence of DMSO (final 1.25% DMSO) or compound dilution series in DMSO. Alpha streptavidin donor beads and Nickel-chelate acceptor beads were added to a final concentration of 10 μg/ml each. After a minimum of 1 hour equilibration, plates were read on a BMG PHERAstar FS multi-label reader (BMG LabTech). The half maximal inhibitory concentration (IC50) values were calculated using IDBS Activity Base software with a four parameter logistic curve fit by the equation y=A+((B−A)/(1+((C/x)^D))), wherein A denotes the bottom plateau of the curve, B denotes the top plateau of the curve, C denotes the x value at the middle of the curve, D denotes the slope factor, x denotes the original known x values, and y denotes the original known y values. Data was fitted using the Levenburg Marquardt algorithm.

IC50 [1] [µM] | IC50 [2] [µM] | Structure (SMILES)
1 to 10 | 0.05 to 0.5 | CNC(=O)COc1c(-c2cnn(C3COC3)c2)ccc2c1CC[C@H](C)N2C(C)=O [I-378]
1 to 10 | 0.05 to 0.5 | CNC(=O)COc1c(-c2cnn(C3CC3)c2)ccc2c1CC[C@H](C)N2C(C)=O [I-383]
1 to 10 | ≥ 0.5 | CC(=O)N1c2ccc(-c3cnn(C4CC4)c3)c(OCCN(C)C)c2CC[C@@H]1C [I-386]
1 to 10 | ≥ 0.5 | CC(=O)N1c2ccc(-c3cnn(C4CC4)c3)c(OCC(N)=O)c2CC[C@@H]1C [I-391]
1 to 10 | 0.05 to 0.5 | CC(=O)N1c2ccc(-c3cnn(C4CC4)c3)c(OCC#N)c2CC[C@@H]1C [I-397]
1 to 10 | 0.05 to 0.5 | COc1c(-c2cnn(C3CC3)c2)ccc2c1CC[C@H](C)N2C(C)=O [I-404]
1 to 10 | 0.05 to 0.5 | CC(=O)N1c2ccc(-c3cnn(CC(C)(C)O)c3)c(OCC3CCOCC3)c2CC[C@@H]1C [I-414]
1 to 10 | 0.05 to 0.5 | CC(=O)N1c2ccc(-c3cnn(CCS(C)(=O)=O)c3)c(OCC(=O)N(C)C)c2CC[C@@H]1C [I-417]
1 to 10 | 0.05 to 0.5 | CC(=O)N1c2ccc(-c3cnn(CC(C)(C)O)c3)c(OCC(=O)N(C)C)c2CC[C@@H]1C [I-418]
1 to 10 | 0.05 to 0.5 | CC(=O)N1c2ccc(-c3cnn(CC(C)(C)O)c3)c(OCC(C)C)c2CC[C@@H]1C [I-421]
1 to 10 | 0.05 to 0.5 | CC(=O)N1c2ccc(-c3cnn(CC(C)(C)O)c3)c(OCC(=O)N3CCCC3)c2CC[C@@H]1C [I-429]
1 to 10 | 0.05 to 0.5 | CC(=O)N1c2ccc(-c3cnn(CCO)c3)c(OCC(=O)N3CCCC3)c2CC[C@@H]1C [I-430]
1 to 10 | 0.05 to 0.5 | CC(=O)N1c2ccc(-c3cnn(CC(C)(C)O)c3)c(OC[C@H]3CCC(=O)N3)c2CC[C@@H]1C [I-433]
1 to 10 | 0.05 to 0.5 | CC(=O)N1c2ccc(-c3cnn(CCO)c3)c(OC[C@H]3CCC(=O)N3)c2CC[C@@H]1C [I-434]
1 to 10 | 0.05 to 0.5 | CC(=O)N1c2ccc(-c3cnn(CCS(C)(=O)=O)c3)c(OCCN(C)S(C)(=O)=O)c2CC[C@@H]1C [I-436]
1 to 10 | 0.05 to 0.5 | CC(=O)N1c2ccc(-c3cnn(CC(C)(C)O)c3)c(OCCN(C)S(C)(=O)=O)c2CC[C@@H]1C [I-437]
1 to 10 | 0.05 to 0.5 | CC(=O)N1c2ccc(-c3cnn(CCO)c3)c(OCCN(C)S(C)(=O)=O)c2CC[C@@H]1C [I-438]
1 to 10 | 0.05 to 0.5 | CC(=O)N1c2ccc(-c3cnn(CCO)c3)c(OC[C@H]3CCNC3)c2CC[C@@H]1C [I-440]
1 to 10 | 0.05 to 0.5 | COC(=O)N1c2ccc(-c3cnn(CC(C)(C)O)c3)c(OCC(=O)N(C)C)c2CC[C@@H]1C [I-453]
1 to 10 | 0.05 to 0.5 | COC(=O)N1c2ccc(-c3cnn(CCS(C)(=O)=O)c3)c(OCC(C)C)c2CC[C@@H]1C [I-455]
1 to 10 | 0.05 to 0.5 | COC(=O)N1c2ccc(-c3cnn(CC(C)(C)O)c3)c(OCC(C)C)c2CC[C@@H]1C [I-456]
1 to 10 | 0.05 to 0.5 | COC(=O)N1c2ccc(-c3cnn(CCO)c3)c(OCC(C)C)c2CC[C@@H]1C [I-457]
1 to 10 | 0.05 to 0.5 | COC(=O)N1c2ccc(-c3cnn(CC(C)(C)O)c3)c(OCC3CCCC3)c2CC[C@@H]1C [I-460]
1 to 10 | 0.05 to 0.5 | COC(=O)N1c2ccc(-c3cnn(CC(C)(C)O)c3)c(OCC(=O)N3CCCC3)c2CC[C@@H]1C [I-464]
1 to 10 | 0.05 to 0.5 | COC(=O)N1c2ccc(-c3cnn(CC(C)(C)O)c3)c(OC[C@H]3CCC(=O)N3)c2CC[C@@H]1C [I-468]

Second part, the molecule before the results:

Structure (SMILES) | IC50 [1] [µM] | IC50 [2] [µM]
CC(=O)N1c2ccc(-c3cnn(C4CC4)c3)c(Oc3ncccc3Cl)c2CC[C@@H]1C [I-87, (S)-1-(5-(3-chloropyridin-2-yloxy)-6-(1-cyclopropyl-1H-pyrazol-4-yl)-2-methyl-3,4-dihydroquinolin-1 (2H)-yl)ethanone] | 1 to 10 | 0.05 to 0.5
CC(=O)N1c2ccc(-c3cnn(C4CC4)c3)c(Oc3nc(C)cc(C)n3)c2CC[C@@H]1C [I-90, (S)-1-(6-(1-cyclopropyl-1H-pyrazol-4-yl)-5-(4,6-dimethylpyrimidin-2-yloxy)-2-methyl-3,4-dihydroquinolin-1 (2H)-yl)ethanone] | 1 to 10 | 0.05 to 0.5
CC(=O)N1c2ccc(-c3cnn(C4CC4)c3)c(O/C=C/Cl)c2CC[C@@H]1C [I-277, (S,E)-1-(5-(2-chlorovinyloxy)-6-(1-cyclopropyl-1H-pyrazol-4-yl)-2-methyl-3,4-dihydroquinolin-1(2H)-yl)ethanone] | 1 to 10 | 0.05 to 0.5
CC(=O)N1c2ccc(-c3cnn(C4COC4)c3)c(OCc3ccno3)c2CC[C@@H]1C [I-379] | 1 to 10 | 0.05 to 0.5
CC(=O)N1c2ccc(-c3cnn(C4COC4)c3)c(OCCNS(C)(=O)=O)c2CC[C@@H]1C [I-380] | 1 to 10 | 0.05 to 0.5
CC(=O)N1c2ccc(-c3cnn(C4CC4)c3)c(OCc3ccno3)c2CC[C@@H]1C [I-381] | 1 to 10 | 0.05 to 0.5
CC(=O)N1c2ccc(-c3cnn(C4CC4)c3)c(OC3COC3)c2CC[C@@H]1C [I-384] | 1 to 10 | 0.05 to 0.5
CC(=O)N1c2ccc(-c3cnn(C4CC4)c3)c(OCc3ccccc3)c2CC[C@@H]1C [I-393] | 1 to 10 | < 0.05
CC(=O)N1c2ccc(-c3cnn(C4CC4)c3)c(OCc3cccnc3)c2CC[C@@H]1C [I-399] | 1 to 10 | 0.05 to 0.5
CC(=O)N1c2ccc(-c3cnn(C4CC4)c3)c(OCc3ccccn3)c2CC[C@@H]1C [I-403] | 1 to 10 | 0.05 to 0.5
CC(=O)N1c2ccc(-c3cnn(C4CC4)c3)c(OCc3ccn(C)n3)c2CC[C@@H]1C [I-405] | 1 to 10 | 0.05 to 0.5
CC(=O)N1c2ccc(-c3cnn(C4CC4)c3)c(OCc3cncs3)c2CC[C@@H]1C [I-406] | 1 to 10 | 0.05 to 0.5
CC(=O)N1c2ccc(-c3cnn(C4CCNCC4)c3)c(OCC(=O)N(C)C)c2CC[C@@H]1C [I-419] | 1 to 10 | 0.05 to 0.5
CC(=O)N1c2ccc(-c3cnn(CCS(C)(=O)=O)c3)c(OCC(=O)N3CCCC3)c2CC[C@@H]1C [I-428] | 1 to 10 | 0.05 to 0.5
CC(=O)N1c2ccc(-c3cnn(CCS(C)(=O)=O)c3)c(OC[C@H]3CCC(=O)N3)c2CC[C@@H]1C [I-432] | 1 to 10 | 0.05 to 0.5
CC(=O)N1c2ccc(-c3cnn(C4CCNCC4)c3)c(OC[C@H]3CCC(=O)N3)c2CC[C@@H]1C [I-435] | 1 to 10 | 0.05 to 0.5
CC(=O)N1c2ccc(-c3cnn(C4CCNCC4)c3)c(OCCN(C)S(C)(=O)=O)c2CC[C@@H]1C [I-439] | 1 to 10 | 0.05 to 0.5
CCCOc1c(-c2cnn(CCS(C)(=O)=O)c2)ccc2c1CC[C@H](C)N2C(=O)OC [I-441] | 1 to 10 | 0.05 to 0.5
COC(=O)N1c2ccc(-c3cnn(CCS(C)(=O)=O)c3)c(OCC3CCOCC3)c2CC[C@@H]1C [I-448] | 1 to 10 | 0.05 to 0.5
COC(=O)N1c2ccc(-c3cnn(CCO)c3)c(OCC3CCOCC3)c2CC[C@@H]1C [I-450] | 1 to 10 | 0.05 to 0.5
COC(=O)N1c2ccc(-c3cnn(C4CCNCC4)c3)c(OCC3CCOCC3)c2CC[C@@H]1C [I-451] | 1 to 10 | 0.05 to 0.5
COC(=O)N1c2ccc(-c3cnn(CCS(C)(=O)=O)c3)c(OCC(=O)N(C)C)c2CC[C@@H]1C [I-452] | 1 to 10 | 0.05 to 0.5
COC(=O)N1c2ccc(-c3cnn(C4CCNCC4)c3)c(OCC(=O)N(C)C)c2CC[C@@H]1C [I-454] | 1 to 10 | 0.05 to 0.5
COC(=O)N1c2ccc(-c3cnn(CCS(C)(=O)=O)c3)c(OCC(=O)N3CCCC3)c2CC[C@@H]1C [I-463] | 1 to 10 | 0.05 to 0.5
COC(=O)N1c2ccc(-c3cnn(CCO)c3)c(OCC(=O)N3CCCC3)c2CC[C@@H]1C [I-465] | 1 to 10 | 0.05 to 0.5
COC(=O)N1c2ccc(-c3cnn(CCS(C)(=O)=O)c3)c(OC[C@H]3CCC(=O)N3)c2CC[C@@H]1C [I-467] | 1 to 10 | 0.05 to 0.5
COC(=O)N1c2ccc(-c3cnn(CCO)c3)c(OC[C@H]3CCC(=O)N3)c2CC[C@@H]1C [I-469] | 1 to 10 | 0.05 to 0.5
COC(=O)N1c2ccc(-c3cnn(C4CCNCC4)c3)c(OC[C@H]3CCC(=O)N3)c2CC[C@@H]1C [I-470] | 1 to 10 | 0.05 to 0.5
